The results in this text go back to PubChem BioAssay AID463199 (Broad Institute, 2010).

By AC50 is commonly meant the concentration at which the activity in the assay is half-maximal.

Active and inactive are the calls of the source.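 How the source made its calls: active means AC50, the dose giving half-maximal effect, exceeds a fixed cutoff for a compound that rescues yeast growth under heat; inactive means the rest, inconclusive results apart.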

The test relates to S. cerevisiae Burl-1 ts mutant growth, BacTiter-Glo, 38.5C 24 h. The test can be described thus: growth induction of Burl-1 ts yeast mutant, dose response, counter-screen for SUMOylation pathway inhibitor project, whole organism, S. cerevisiae, luminescence (AID 463199). In general terms: A counterscreen serves to expose hits that act by an unwanted route or on another target.
With `COC(=O)c1ccc(SCC(=O)N2CCC(C)CC2)c([N+](=O)[O-])c1`, the AC50 is > 42 µM (inactive). Take `O=C(NC1CCCCC1)c1ccc2c(=O)n(CC3CCCO3)c(=O)[nH]c2c1` (configuration not stated): the AC50 was > 42 µM (inactive). Then `CCn1c(N2CCN(C(=O)C34CC5CC(CC(C5)C3)C4)CC2)nc2ccccc21`, with > 42 µM (inactive). Then `CCOc1ccc(C(=O)NCC2OCCc3ccccc32)cc1` (configuration not stated), with > 42 µM (inactive); and `Cc1ccccc1P(=O)(CO)c1ccccc1C`, with > 42 µM (inactive). Then `O=C(Nc1ccc(Cl)cc1Cl)c1cccc(N2C(=O)C=CC2=O)c1`, with > 42 µM (inactive).

On to `O=C(Cc1ccccc1)N1CCCC1c1ccccc1` (configuration not stated), for which the AC50 is > 42 µM (inactive). Then `O=C(c1ccc(CS(=O)(=O)c2ccccc2)o1)N1CCOCC1`, with > 42 µM (inactive); and `Cc1cc(C)cc(NC(=O)C2CCCN(S(=O)(=O)c3ccc4[nH]c(=O)ccc4c3)C2)c1` (configuration not stated), with > 42 µM (inactive); and `c1ccc(-c2csc(NC3CCCCC3)n2)cc1`, with > 42 µM (inactive). With `Cc1ccc2c(c1)N(CC(=O)NCC1CCCO1)C(=O)C(C)O2` (configuration not stated), the AC50 was > 42 µM (inactive). For `O=C(c1cccnc1)N1CCCC(Nc2ccc(F)cc2)C1` (configuration not stated), the AC50 was > 42 µM (inactive). As to `O=C1NC(=O)N(Cc2ccccc2)C1=O`, the AC50 was > 42 µM (inactive).

As for `O=C(COc1ncnc2ccccc12)Nc1ccc(Cl)c(S(=O)(=O)N2CCOCC2)c1`, the AC50 was > 42 µM (inactive). Then `CCOC(=O)c1oc2cc(OC(C)=O)ccc2c(=O)c1-c1ccc(OC)c(OC)c1`, with > 42 µM (inactive); and `CCOC(=O)C1CCCN(C(=O)/C=C/c2ccc(Cl)cc2)C1` (configuration not stated), with > 42 µM (inactive); and `CCn1c(SCc2nc3ccccc3s2)nnc1-c1ccccc1`, with > 42 µM (inactive). Then `O=C(NNC(=O)c1ccccc1O)c1ccco1`, with > 42 µM (inactive). As for `COc1cccc(C2/C(=C(/O)c3ccccc3)C(=O)C(=O)N2Cc2ccco2)c1` (configuration not stated), the AC50 is > 42 µM (inactive). In the case of `Cc1cc(F)ccc1S(=O)(=O)Nc1ccccc1C(=O)Nc1ccc2[nH]c(=O)[nH]c2c1`, the AC50 was > 42 µM (inactive). The same measure for `CCN(CC)c1ccc(Nc2cc3n(c(=O)n2)CCc2cc(OC)c(OC)cc2-3)cc1`: > 42 µM (inactive); for `CCCCn1c(N)c(N(CCOC)C(=O)c2ccc(Cl)c(S(=O)(=O)N3CCCCC3)c2)c(=O)[nH]c1=O`: > 42 µM (inactive).

Regarding `O=C1CN(C(=O)c2ccccc2F)C(c2ccccc2)c2cc(Cl)ccc2N1` (configuration not stated), the AC50 was > 42 µM (inactive).

As for `CCC1(CC)NC(=O)N(CC(=O)N2N=C(c3ccc(Cl)cc3)CC2c2ccco2)C1=O` (configuration not stated), the AC50 is > 42 µM (inactive). `CN(C)/C=N/NC(=O)c1ccccc1`: the AC50 was > 42 µM (inactive).

In the case of `COc1cc(CN2CCN(c3ncccn3)CC2)cc(OC)c1`, the AC50 is > 42 µM (inactive). Consider `Cc1ccc(C(C(=O)NC2CCCCC2)N(CCC(C)C)C(=O)CNC(=O)c2ccco2)o1` (configuration not stated), for which the AC50 is > 42 µM (inactive). For `O=c1c2ccccc2nc(COc2ccccc2)n1/N=C/c1cn[nH]c1-c1ccccc1`, the AC50 is > 42 µM (inactive).

Turning to `COCCn1c(N)c(N(Cc2ccccc2)C(=O)CN2C(=O)NC(C)(c3ccccc3)C2=O)c(=O)[nH]c1=O` (configuration not stated), the AC50 is 39.8 µM. The same measure for `CCOC(=O)C1CCCN(C(=O)c2cc(-c3ccc(F)cc3)nc3ccccc23)C1` (configuration not stated): > 42 µM (inactive). Then `O=C(OC1CCOC1=O)c1cccc(S(=O)(=O)Nc2ccc(F)cc2)c1` (configuration not stated), with > 42 µM (inactive). As to `Cc1ccc(CC2CC(=O)N(c3ccc4c(c3)OCCO4)C2=O)cc1` (configuration not stated), the AC50 is > 42 µM (inactive). Then `CCn1c(SCC(=O)Nc2nc(-c3ccccc3)cs2)nnc1-c1ccccc1`, with > 42 µM (inactive); and `COc1ccc2c(c1)[C@@]13CCC=C[C@H]1[C@@H](C2)NCC3`, with > 42 µM (inactive); and `O=C(CSc1nnc(CNC(=O)c2ccccc2F)o1)NCCc1ccccc1`, with > 42 µM (inactive). The same measure for `O=C(CCc1ccccc1)N1CCN(c2ccccc2F)CC1`: > 42 µM (inactive); for `COc1ccc(-c2nc3c(c(SCC(=O)N4CCOCC4)n2)Cc2c(CO)cnc(C)c2O3)cc1`: > 42 µM (inactive); for `CCc1nc2ccccc2c(C(=O)OC2CCCCC2=O)c1C` (configuration not stated): > 42 µM (inactive). Then `N#C/C(=N\Nc1cccc(F)c1)C(=N)N1CCCCCC1`, with > 42 µM (inactive).

As for `O=C(NCC(=O)N(c1ccccc1)C(C(=O)NCC1CCCO1)c1ccccc1)c1cccs1` (configuration not stated), the AC50 is > 42 µM (inactive). Regarding `Cc1ccc(C(C(=O)NCC2CCCO2)N(Cc2ccccc2F)C(=O)Cn2nnc(-c3cccs3)n2)cc1` (configuration not stated), the AC50 was > 42 µM (inactive). The same measure for `CC1=CC(C)(C)N2C(=O)C3(NCCc4c3[nH]c3ccccc43)c3cc(C)cc1c32` (configuration not stated): > 42 µM (inactive); for `CCc1cc(/C(Cc2ccccn2)=N\O)c(O)cc1O`: > 42 µM (inactive). Then `Cc1nn(C)cc1S(=O)(=O)Nc1ncccn1`, with > 42 µM (inactive).

Regarding `O=C(NC1CCCCC1)c1n[nH]c2c1CCCCC2`, the AC50 is > 42 µM (inactive). The same measure for `COCCCNS(=O)(=O)c1ccc(Oc2ncc(C(F)(F)F)cc2Cl)cc1`: > 42 µM (inactive).

Turning to `CN(CC(=O)Nc1ccccc1Sc1ccccc1)Cc1nc2ccccc2c(=O)[nH]1`, the AC50 is > 42 µM (inactive). `O=c1cc(C(F)(F)F)c2sc(N3CCCCC3)nc2[nH]1`: the AC50 was > 42 µM (inactive).

In the case of `COc1ccccc1-c1nnc(SCC(=O)NC2CCS(=O)(=O)C2)n1N` (configuration not stated), the AC50 is > 42 µM (inactive). Then `CC1(OC(=O)C2CCCC2)C(=O)C=C2C=C(c3ccsc3)OC=C2C1=O` (configuration not stated), with > 42 µM (inactive). With `CC(=O)Cc1nsc(Nc2cccc(C)c2)n1`, the AC50 was > 42 µM (inactive).

On to `O=C1c2ccccc2S(=O)(=O)N1Cc1cc(=O)n2ccsc2n1`, for which the AC50 is > 42 µM (inactive).

With `O=C(CCSc1nnnn1-c1ccccc1)N1CCOCC1`, the AC50 is > 42 µM (inactive). Then `OC1CN=C2CCCc3c2n(c2ccc(Cl)cc32)C1` (configuration not stated), with > 42 µM (inactive). The same measure for `CC(=O)Nc1ccc(S(=O)(=O)Nc2ccc(S(=O)(=O)Nc3ncccn3)cc2)cc1`: > 42 µM (inactive); for `CC(C)=CC(=O)N1CCCC(N2CCN(c3ccc(F)cc3)CC2)C1` (configuration not stated): 2.02 µM; for `O=C(O)c1ccc(CNC(=O)c2ccccc2NC(=O)c2ccc([N+](=O)[O-])cc2)cc1`: > 42 µM (inactive). Then `S=C(c1ccc(N2CCOCC2)cc1)N1CCCCC1`, with > 42 µM (inactive); and `Cc1cccc(C)c1NS(=O)(=O)c1ccc(OCCNS(C)(=O)=O)cc1`, with > 42 µM (inactive). With `Cc1ccc(NC(=O)Cn2nc(C)c3ccccc3c2=O)cc1`, the AC50 is > 42 µM (inactive).

On to `CCOC(=O)c1sc2ncn(C(CC)C(=O)OCC)c(=O)c2c1C` (configuration not stated), for which the AC50 was > 42 µM (inactive). The same measure for `CCCCSCCCNC(=O)Nc1cccc(OC)c1`: > 42 µM (inactive). Turning to `O=C(COc1ccc([N+](=O)[O-])cc1)Nc1ccc(C(=O)NCc2cccnc2)cc1`, the AC50 was > 42 µM (inactive). Then `CCOC(=O)c1[nH]c2ccc(Br)cc2c1NC(=O)CCN1CCOCC1`, with > 42 µM (inactive). Then `O=C(Oc1ccccc1N1C(=O)C2CC=CCC2C1=O)c1ccc(Br)cc1` (configuration not stated), with > 42 µM (inactive). Then `COc1ccccc1NC(=S)N(Cc1ccco1)Cc1cc2cccc(C)c2[nH]c1=O`, with > 42 µM (inactive); and `CCc1cc2c(=O)c(-c3nc4ccccc4[nH]3)coc2c(CN2CCCCC2)c1O`, with > 42 µM (inactive); and `c1ccc(CNc2ccc3ccccc3n2)nc1`, with > 42 µM (inactive). Regarding `CCCOc1ccccc1C1NC(=O)NC(C)=C1C(=O)OCCOCC` (configuration not stated), the AC50 is > 42 µM (inactive). The same measure for `CCC(C)(C(=O)NC1CCCC1)N(C(=O)c1ccccn1)c1ccc(C)cc1` (configuration not stated): > 42 µM (inactive); for `Cn1c(O)c(C(c2ccccn2)c2c(O)n(C)c(=S)n(C)c2=O)c(=O)n(C)c1=S`: > 42 µM (inactive); for `COc1ccc(N2CCN(C(=O)CNC(=O)Cc3ccc(Cl)cc3)CC2)cc1`: > 42 µM (inactive).

Regarding `CCC1(c2ccccc2)NC(=O)N(CC(=O)N(C)CC(=O)Nc2ccc(F)c(F)c2F)C1=O` (configuration not stated), the AC50 was > 42 µM (inactive). The same measure for `CCOC(=O)c1c(/N=C/C2C(=O)CCCC2=O)sc2c1CCCC2`: > 42 µM (inactive).

Take `CN(C(=O)C1CCCO1)c1nnc(-c2cnccn2)s1` (configuration not stated): the AC50 is > 42 µM (inactive).

As to `C=C(C)Cn1c(SCC(=O)N/N=C/c2ccccc2OCC(=O)O)nnc1-c1ccc(Br)cc1`, the AC50 is > 42 µM (inactive).

`C/C(=N\N=C(/N)SC1CC(=O)N(c2cccc(Cl)c2)C1=O)c1cccs1` (configuration not stated): the AC50 is > 42 µM (inactive).

Regarding `CNC(=O)NNC(=O)c1csc(-c2ccc(C(F)(F)F)cc2Cl)n1`, the AC50 is > 42 µM (inactive).

Consider `CC1(C)CC(=O)C2=C(C1)OC(N)=C(C#N)C21C(=O)N(CN2CCOCC2)c2ccccc21` (configuration not stated), for which the AC50 was > 42 µM (inactive).

Turning to `COc1cc(C(=O)NCCOc2cc(C)cc(C)c2)cc(OC)c1OC`, the AC50 is > 42 µM (inactive). The same measure for `COc1ccc(C(=O)COc2ccc3ccc(=O)oc3c2)cc1`: > 42 µM (inactive); for `COc1ccc(OC)c(NC(=O)CN(C)S(=O)(=O)c2ccc(Cl)cc2)c1`: > 42 µM (inactive). The same measure for `O=C(CCCn1cnc([N+](=O)[O-])n1)Nc1cccc2ccccc12`: > 42 µM (inactive). Then `CC1CN=C(NCc2ccccc2)S1` (configuration not stated), with > 42 µM (inactive); and `CCN1CCN(CC(=O)N2N=CCC2c2ccccc2)CC1` (configuration not stated), with > 42 µM (inactive). Turning to `Oc1c(Br)cc(Br)cc1/C=N/n1c(-c2ccccc2)n[nH]c1=S`, the AC50 was > 42 µM (inactive). Then `O=S(=O)(Nc1ccc(N2CCOCC2)cc1)c1cccs1`, with > 42 µM (inactive).
